From paper PMC7376644 (Pharmacology Research & Perspectives, 2020)
Values joined by “and” are separate entries in the source; they are usually repeats but may differ in a detail not shown here. Identical values can stand only once. Like-named read-outs stand apart in the source and are kept apart here.

Columns and labels:
HLM = test: Enzyme kinetics of hydroxylated metabolites formation; assay type: in vitro ADME, human
Description: The reactions were carried out in duplicate at each time point. Incubation conditions used for the determination of K M and V max were optimized for linearity with respect to time and protein concentrations. […] Metabolites were analyzed by LC‐MS/MS as described below. The K M and V max values of each marker substrate were determined using nonlinear least squares regression analysis in GraFit software (version 3.0, Erithacus Software Limited) and SigmaPlot Enzyme Kinetics Module for Windows 7.0 (SPSS, Inc). […]

[1] = PZQ-ketoconazole DDI pharmacokinetic study in healthy volunteers; assay type: in vivo, human; conditions: for AUC(0-inf) / AUC / CL/F / k el / half-life / Tmax / Vd/F: male, human, plasma
Description: Plasma samples were obtained from the AiBST biobank. […] Each participant served as their own control. Each participant provided written informed consent to take part in the study and the study was carried out according to Helsinki Declaration of 1975, as revised in 2008. The study was approved by the Medical Research Council of Zimbabwe (MRCZ) and the Medicines Controls Authority of Zimbabwe (MCAZ). […] The samples were vortexed for 30 seconds and left under gentle agitation for 25 minutes. […] From the supernatant, 20 μL was injected onto the chiral HPLC system for analysis. […] Detection was done using a UV diode array detector at 210 nm. […] The data were gathered and processed using Agilent OpenLab CDS for Chemstation software version 1.9. Linear calibration curves were plotted as concentration vs peak area ratio for analyte to IS with no weighting. […] The pharmacokinetic (PK) analysis was performed using the WinNonlin program, version 8.2 (Pharsight Corp). […] A non-compartmental approach was used for curve plotting and parameter calculation. The area under the curve (AUC) from time 0 to the last sampling time point (AUCt) was computed using the log-linear trapezoidal rule. The linear trapezoidal rule was used for the ascending part of the PK curve, while the log trapezoidal rule was used for the descending part of the graph. The AUC extrapolated to infinite time was calculated as AUC∞ = AUCt + Ct/K el where Ct is the concentration of the last sample taken and K el is the terminal elimination rate constant. The terminal elimination rate constant K el was determined by least squares regression analysis in the terminal phase of the semi log concentration-time curve. […] Statistical analysis was performed using the GraFit software (version 3.0, Erithacus Software Limited). […] Analysis of variance (ANOVA) was performed on the AUC and C max after transformation of the data to their natural logarithmic (ln) values.

[2] = cited from earlier work
CYP1A2 [3] = biological target: T1, CYP1A2 (Homo sapiens, UniProt P05177); test: in vitro; conditions: recombinant CYP1A2, pH 7.4
T1 sequence (P05177 1-516): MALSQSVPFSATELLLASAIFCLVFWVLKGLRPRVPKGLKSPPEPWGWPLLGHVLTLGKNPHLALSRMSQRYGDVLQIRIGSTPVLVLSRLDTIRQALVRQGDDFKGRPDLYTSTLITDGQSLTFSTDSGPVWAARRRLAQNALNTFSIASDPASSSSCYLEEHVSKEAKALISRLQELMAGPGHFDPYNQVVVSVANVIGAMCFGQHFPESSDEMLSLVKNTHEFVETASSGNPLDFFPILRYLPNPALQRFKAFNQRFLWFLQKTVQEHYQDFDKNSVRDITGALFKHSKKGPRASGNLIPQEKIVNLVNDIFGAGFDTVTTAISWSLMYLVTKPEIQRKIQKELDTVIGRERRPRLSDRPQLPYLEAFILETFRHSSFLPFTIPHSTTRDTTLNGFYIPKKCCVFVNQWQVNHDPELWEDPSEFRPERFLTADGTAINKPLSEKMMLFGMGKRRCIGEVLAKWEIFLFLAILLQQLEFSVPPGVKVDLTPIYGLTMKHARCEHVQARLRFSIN

CYP1A2 [4] = biological target: T1, CYP1A2; test: Intrinsic clearance, substrate depletion approach; conditions: rCYP1A2, substrate depletion
CYP2C19 = CYP2C19 (Homo sapiens, UniProt P33261); test: Qualitative substrate disappearance assay; assay type: in vitro ADME; parameters: purchased CYPEX CYP008; host or cells: Escherichia coli; conditions: 20 pmols rCYP, 1.0 µmol/L substrate, 30 minutes
Chain of CYP2C19 (P33261 whole entry): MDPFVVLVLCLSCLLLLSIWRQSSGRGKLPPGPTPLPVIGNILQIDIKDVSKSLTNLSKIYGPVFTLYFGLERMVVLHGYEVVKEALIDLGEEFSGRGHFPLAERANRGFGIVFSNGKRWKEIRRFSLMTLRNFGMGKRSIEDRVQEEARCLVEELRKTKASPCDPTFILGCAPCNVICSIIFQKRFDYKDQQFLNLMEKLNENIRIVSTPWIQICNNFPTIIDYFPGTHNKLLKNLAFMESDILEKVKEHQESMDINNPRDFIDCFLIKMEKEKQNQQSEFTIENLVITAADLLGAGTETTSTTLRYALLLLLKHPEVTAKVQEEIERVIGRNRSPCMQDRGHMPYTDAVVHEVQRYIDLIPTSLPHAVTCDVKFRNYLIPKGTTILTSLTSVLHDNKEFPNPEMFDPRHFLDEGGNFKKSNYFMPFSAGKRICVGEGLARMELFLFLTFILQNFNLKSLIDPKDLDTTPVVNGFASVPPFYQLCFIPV
Description: All reactions were performed in triplicate in 96‐well plates. […] The substrate was diluted to 40% ACN so that the percent organic component in the final solution was maintained at 1%. […] The reactions were initiated by addition of NADPH after a pre‐incubation of 5 minutes at 37°C. All reactions were terminated by the addition of 150 µL of ice‐cold ACN at either 0 minute (control) or 30 minutes (reaction). This was followed by centrifugation at 4500 g for 20 minutes. An aliquot (50 µL) supernatant was collected and 5 µL was injected and analyzed by liquid chromatography/tandem mass spectrometry (LC/MS/MS). Metabolism was signified qualitatively by loss of substrate from the media using the relationship: %remaining compound=[…]Peak area atT30min/Peak area atT0min×100.

[5] = PZQ + ketoconazole vs PZQ alone
[6] = PZQ + ketoconazole vs PZQ alone, listed as S‐Praziquantel
[7] = single oral 20 mg/kg PZQ alone, n = 9, listed as S‐Praziquantel, 20 mg/kg

O=C(C1CCCCC1)N1CC(=O)N2CCc3ccccc3[C@H]2C1 [S‐PZQ, S‐Praziquantel]
K M [SD] (HLM; formation of X‐OH‐PZQ): 61.00 [22.12] µmol/L
V max [SD] (HLM; formation of X‐OH‐PZQ): 6.3 nmol/min/mg protein and 6.300 [1.102] nmol/min/mg protein
K M [SD] (HLM; formation of cis‐4‐OH‐PZQ): 44.30 [12.06] µmol/L
V max [SD] (HLM; formation of cis‐4‐OH‐PZQ): 0.2700 [0.02999] nmol/min/mg protein
Clearance/F, treatment mean (SD) ([1]; 20 mg/kg PZQ plus 200 mg ketoconazole, n = 9): 211.5 (74.47) L/h
AUCinf, difference observed % [1, 5]: 68%
AUCt0‐tlast, difference observed % [1, 5]: 56.09%
C max, difference observed % [1, 5]: 107.11%
Clearance/F, difference observed % [1, 5]: −37.81%
Half life, difference observed % [1, 5]: 31.52%
AUCinf, difference observed % [1, 6]: 67.71%
C max, difference observed % [1, 6]: 107.1%
AUC(0-inf) ([1]; oral, 20 mg/kg, 20 mg/kg PZQ plus 200 mg ketoconazole, n = 9, read-out: AUCinf, treatment geo mean): 5960 ng·h/mL
AUC(0-inf) ([1]; oral, 20 mg/kg, 20 mg/kg PZQ plus 200 mg ketoconazole, n = 9, read-out: AUCinf, treatment mean (SD)): 6460 ng·h/mL
AUC ([1]; oral, 20 mg/kg, 20 mg/kg PZQ plus 200 mg ketoconazole, n = 9, read-out: AUCt0‐tlast, treatment geo mean): 4680 ng·h/mL
AUC ([1]; oral, 20 mg/kg, 20 mg/kg PZQ plus 200 mg ketoconazole, n = 9, read-out: AUCt0‐tlast, treatment mean (SD)): 4910 ng·h/mL
CL/F ([1]; oral, 20 mg/kg, 20 mg/kg PZQ plus 200 mg ketoconazole, n = 9, read-out: Clearance/F, treatment geo mean (converted)): 3340 mL/min
CL/F ([1]; oral, 20 mg/kg, 20 mg/kg PZQ plus 200 mg ketoconazole, n = 9, read-out: Clearance/F, treatment mean (SD) (converted)): 3530 mL/min
k el ([1]; oral, 20 mg/kg, 20 mg/kg PZQ plus 200 mg ketoconazole, n = 9, read-out: Elimination rate constant, treatment geo mean (converted)): 6.11e-05 s⁻¹
k el ([1]; oral, 20 mg/kg, 20 mg/kg PZQ plus 200 mg ketoconazole, n = 9, read-out: Elimination rate constant, treatment mean (SD) (converted)): 6.94e-05 s⁻¹
half-life ([1]; oral, 20 mg/kg, 20 mg/kg PZQ plus 200 mg ketoconazole, n = 9, read-out: Half life, treatment geo mean (converted)): 3.17 h
half-life ([1]; oral, 20 mg/kg, 20 mg/kg PZQ plus 200 mg ketoconazole, n = 9, read-out: Half life, treatment mean (SD) (converted)): 3.63 h
Tmax ([1]; oral, 20 mg/kg, 20 mg/kg PZQ plus 200 mg ketoconazole, n = 9, read-out: T max, treatment geo mean): 2.35 h
Tmax ([1]; oral, 20 mg/kg, 20 mg/kg PZQ plus 200 mg ketoconazole, n = 9, read-out: T max, treatment mean (SD)): 2.44 h
Vd/F ([1]; oral, 20 mg/kg, 20 mg/kg PZQ plus 200 mg ketoconazole, n = 9, read-out: V d/F, treatment geo mean): 915 L
Vd/F ([1]; oral, 20 mg/kg, 20 mg/kg PZQ plus 200 mg ketoconazole, n = 9, read-out: V d/F, treatment mean (SD)): 967 L
AUC ([1]; oral, 20 mg/kg, AUC, PZQ alone): 3850 ± 1430 ng·h/mL
AUC ([1]; oral, 20 mg/kg, read-out: AUC from the in vivo pharmacokinetic study): 3300 ng·h/mL
AUC ([1]; oral, AUC, PZQ + KTZ): 6460 ± 3100 ng·h/mL
AUC(0-inf) ([1]; po, 20 mg/kg, single oral 20 mg/kg PZQ alone, n = 9, read-out: AUCinf, reference geo mean): 3610 ng·h/mL
AUC(0-inf) ([1]; po, 20 mg/kg, single oral 20 mg/kg PZQ alone, n = 9, read-out: AUCinf, reference mean (SD)): 3850 ng·h/mL
AUC ([1]; po, 20 mg/kg, single oral 20 mg/kg PZQ alone, n = 9, read-out: AUCt0‐tlast, reference geo mean): 2970 ng·h/mL
AUC ([1]; po, 20 mg/kg, single oral 20 mg/kg PZQ alone, n = 9, read-out: AUCt0‐tlast, reference mean (SD)): 3150 ng·h/mL
CL/F ([1]; po, 20 mg/kg, single oral 20 mg/kg PZQ alone, n = 9, read-out: Clearance/F, reference geo mean (converted)): 5480 mL/min
CL/F ([1]; po, 20 mg/kg, single oral 20 mg/kg PZQ alone, n = 9, read-out: Clearance/F, reference mean (SD) (converted)): 5670 mL/min
k el ([1]; po, 20 mg/kg, single oral 20 mg/kg PZQ alone, n = 9, read-out: Elimination rate constant, reference geo mean (converted)): 8.33e-05 s⁻¹
k el ([1]; po, 20 mg/kg, single oral 20 mg/kg PZQ alone, n = 9, read-out: Elimination rate constant, reference mean (SD) (converted)): 0.0001 s⁻¹
half-life ([1]; po, 20 mg/kg, single oral 20 mg/kg PZQ alone, n = 9, read-out: Half life, reference geo mean (converted)): 2.3 h
half-life ([1]; po, 20 mg/kg, single oral 20 mg/kg PZQ alone, n = 9, read-out: Half life, reference mean (SD) (converted)): 2.76 h
Tmax ([1]; po, 20 mg/kg, single oral 20 mg/kg PZQ alone, n = 9, read-out: T max, reference geo mean): 2.96 h
Tmax ([1]; po, 20 mg/kg, single oral 20 mg/kg PZQ alone, n = 9, read-out: T max, reference mean (SD)): 3 h
Vd/F ([1]; po, 20 mg/kg, single oral 20 mg/kg PZQ alone, n = 9, read-out: V d/F, reference geo mean): 1090 L
Vd/F ([1]; po, 20 mg/kg, single oral 20 mg/kg PZQ alone, n = 9, read-out: V d/F, reference mean (SD)): 1200 L
Clearance/F, reference mean (SD) ([1]; single oral 20 mg/kg PZQ alone, n = 9, 20 mg/kg): 340 ± 97 L/h
C max, reference mean (SD) [1, 7]: 782.9 (171.7) ng/mL
Clearance/F, reference mean (SD) [1, 7]: 340.1 (96.37) L/h
Fraction unbound in plasma (fu) [2]: 0.2
half-life at 1 µmol/L (CYP1A2 [3]): 0.267 h
Predicted CLH (CYP1A2 [4]): 2.877 mL/min/kg
Predicted CLuH,int (CYP1A2 [4]): 13.07 mL/min/kg
Depletion of substrate by CYP2C19 (CYP2C19): complete depletion
